Experimental data as given in PubChem BioAssay AID256 (DTP/NCI, 2004).
Inconclusive results and toxic doses are left out. How the source made its calls: active means survival T/C of 150% or more; inactive means T/C below 125% in these data.

System: CD2F1 mice, L1210 leukemia ip, survival T/C
Assay: NCI In Vivo Anticancer Drug Screen. Data for tumor model L1210 Leukemia (intraperitoneal) in CD2F1 (CDF1) mice
Conditions: higher = longer survival
Outline: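 In this screen, transplantable tumors were grown in mice given either the compound or its vehicle. Results were expressed as the treated measurement relative to the control measurement.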

[1] = endpoint: mean survival time, dose: 100.0 mg/kg/injection, schedule: Q01DX009 (ip), vehicle: Klucel (hydroxypropylcellulose) (HPC)
[2] = endpoint: mean survival time, dose: 200.0 mg/kg/injection, schedule: Q01DX009 (ip), vehicle: Klucel (hydroxypropylcellulose) (HPC)
[3] = endpoint: mean survival time, dose: 400.0 mg/kg/injection, schedule: Q01DX009 (ip), vehicle: Klucel (hydroxypropylcellulose) (HPC)
[4] = endpoint: mean survival time, dose: 100.0 mg/kg/injection, schedule: Q01DX001 (ip), vehicle: saline with Tween-80
[5] = endpoint: mean survival time, dose: 400.0 mg/kg/injection, schedule: Q01DX001 (ip), vehicle: saline with Tween-80
[6] = endpoint: median survival time, dose: 25.0 mg/kg/injection, schedule: Q01DX009 (ip), vehicle: saline
[7] = endpoint: mean survival time, dose: 75.0 mg/kg/injection, schedule: Q04DX003 (ip), vehicle: saline
[8] = endpoint: mean survival time, dose: 150.0 mg/kg/injection, schedule: Q04DX003 (ip), vehicle: saline
[9] = endpoint: mean survival time, dose: 100.0 mg/kg/injection, schedule: Q04DX003 (ip), vehicle: saline with Tween-80
[10] = endpoint: mean survival time, dose: 200.0 mg/kg/injection, schedule: Q04DX003 (ip), vehicle: saline with Tween-80
[11] = endpoint: mean survival time, dose: 400.0 mg/kg/injection, schedule: Q04DX003 (ip), vehicle: saline with Tween-80
[12] = endpoint: mean survival time, dose: 25.0 mg/kg/injection, schedule: Q01DX001 (ip), vehicle: carboxymethylcellulose (CMC)
[13] = endpoint: mean survival time, dose: 50.0 mg/kg/injection, schedule: Q01DX001 (ip), vehicle: carboxymethylcellulose (CMC)
[14] = endpoint: mean survival time, dose: 100.0 mg/kg/injection, schedule: Q01DX001 (ip), vehicle: carboxymethylcellulose (CMC)
[15] = endpoint: mean survival time, dose: 200.0 mg/kg/injection, schedule: Q01DX001 (ip), vehicle: carboxymethylcellulose (CMC)
[16] = endpoint: mean survival time, dose: 200.0 mg/kg/injection, schedule: Q01DX001 (ip), vehicle: saline with Tween-80

Measured: T/C

NP(=O)(OCCC(=O)OCc1ccccc1)N(CCCl)CCCl (stereo unspecified)
inactive: endpoint: mean survival time, dose: 25.0 mg/kg/injection, schedule: Q01DX009 (ip), vehicle: Klucel (hydroxypropylcellulose) (HPC) 97 % of control | endpoint: mean survival time, dose: 50.0 mg/kg/injection, schedule: Q01DX009 (ip), vehicle: Klucel (hydroxypropylcellulose) (HPC) 92 % of control | [1] 91 % of control | endpoint: mean survival time, dose: 125.0 mg/kg/injection, schedule: Q01DX001 (ip), vehicle: Klucel (hydroxypropylcellulose) (HPC) 95 % of control | [2] 94 % of control | endpoint: mean survival time, dose: 250.0 mg/kg/injection, schedule: Q01DX001 (ip), vehicle: Klucel (hydroxypropylcellulose) (HPC) 93 % of control | [3] 97 % of control | endpoint: mean survival time, dose: 500.0 mg/kg/injection, schedule: Q01DX001 (ip), vehicle: Klucel (hydroxypropylcellulose) (HPC) 98 % of control | endpoint: mean survival time, dose: 1000.0 mg/kg/injection, schedule: Q01DX001 (ip), vehicle: Klucel (hydroxypropylcellulose) (HPC) 95 % of control

COC1OC(CO)C(OC(=O)Nc2ccccc2)C(OC(=O)Nc2ccccc2)C1O (stereo unspecified)
inactive: [4] 87 % of control | [5] 95 % of control

C/C(=N\NC(=O)c1ccccc1O)c1cccc(/C(C)=N/NC(=O)c2ccccc2O)n1
inactive: endpoint: median survival time, dose: 3.0 mg/kg/injection, schedule: Q01DX009 (ip), vehicle: saline 101 % of control | endpoint: median survival time, dose: 6.0 mg/kg/injection, schedule: Q01DX009 (ip), vehicle: saline 106 % of control | endpoint: median survival time, dose: 12.0 mg/kg/injection, schedule: Q01DX009 (ip), vehicle: saline 101 % of control | [6] 93 % of control

Cc1ccc(S(=O)(=O)CN2CCC(=O)c3ccccc32)cc1
inactive: [7] 95 % of control | [8] 91 % of control | endpoint: mean survival time, dose: 300.0 mg/kg/injection, schedule: Q04DX003 (ip), vehicle: saline 97 % of control

NC(CC(=O)O)C(=O)O (stereo unspecified)
inactive: endpoint: mean survival time, dose: 200.0 mg/kg/injection, schedule: Q01DX009 (ip), vehicle: saline 97 % of control | endpoint: mean survival time, dose: 400.0 mg/kg/injection, schedule: Q01DX009 (ip), vehicle: saline 95 % of control | endpoint: mean survival time, dose: 800.0 mg/kg/injection, schedule: Q01DX009 (ip), vehicle: saline 98 % of control

C=C(C)[C@H]1CN[C@H](C(=O)O)[C@H]1CC(=O)O
inactive: endpoint: mean survival time, dose: 5.0 mg/kg/injection, schedule: Q01DX001 (ip), vehicle: saline 94 % of control | endpoint: median survival time, dose: 0.31 mg/kg/injection, schedule: Q01DX009 (ip), vehicle: saline with Tween-80 103 % of control | endpoint: median survival time, dose: 0.62 mg/kg/injection, schedule: Q01DX009 (ip), vehicle: saline with Tween-80 101 % of control | endpoint: median survival time, dose: 1.25 mg/kg/injection, schedule: Q01DX009 (ip), vehicle: saline with Tween-80 100 % of control | endpoint: median survival time, dose: 2.5 mg/kg/injection, schedule: Q01DX009 (ip), vehicle: saline with Tween-80 101 % of control | endpoint: median survival time, dose: 2.5 mg/kg/injection, schedule: Q01DX009 (ip), vehicle: saline 96 % of control | endpoint: median survival time, dose: 5.0 mg/kg/injection, schedule: Q01DX009 (ip), vehicle: saline with Tween-80 101 % of control | endpoint: median survival time, dose: 5.0 mg/kg/injection, schedule: Q01DX009 (ip), vehicle: saline 103 % of control | endpoint: median survival time, dose: 6.25 mg/kg/injection, schedule: Q01DX009 (ip), vehicle: saline 104 % of control | endpoint: median survival time, dose: 10.0 mg/kg/injection, schedule: Q01DX009 (ip), vehicle: saline with Tween-80 101 % of control | endpoint: median survival time, dose: 10.0 mg/kg/injection, schedule: Q01DX009 (ip), vehicle: saline 101 % of control | endpoint: median survival time, dose: 12.5 mg/kg/injection, schedule: Q01DX009 (ip), vehicle: saline 108 % of control | endpoint: median survival time, dose: 20.0 mg/kg/injection, schedule: Q01DX009 (ip), vehicle: saline 95 % of control | [6] 97 % of control | endpoint: median survival time, dose: 40.0 mg/kg/injection, schedule: Q01DX009 (ip), vehicle: saline 93 % of control | endpoint: median survival time, dose: 50.0 mg/kg/injection, schedule: Q01DX009 (ip), vehicle: saline 96 % of control

[Cl][Co]([Cl])[Cl].[NH-]CCCN.[NH-]CCC[NH-]
inactive: [1] 113 % of control | endpoint: mean survival time, dose: 100.0 mg/kg/injection, schedule: Q04DX003 (ip), vehicle: saline 101 % of control | [2] 113 % of control | endpoint: mean survival time, dose: 200.0 mg/kg/injection, schedule: Q04DX003 (ip), vehicle: saline 104 % of control | [3] 104 % of control | endpoint: mean survival time, dose: 400.0 mg/kg/injection, schedule: Q04DX003 (ip), vehicle: saline 104 % of control

COC(=O)C1(C)CCCC2(C)C1CCC13OCC(CC21)C1(C(C)C)OC31 (stereo unspecified)
inactive: [9] 101 % of control | [10] 100 % of control | [11] 95 % of control

Cc1ccccc1OS(=O)(=O)c1cccc([N+](=O)[O-])c1
inactive: [9] 103 % of control | [10] 100 % of control | [11] 100 % of control

O=c1[nH]c(=S)nc2nc[nH]n12
inactive: endpoint: mean survival time, dose: 12.5 mg/kg/injection, schedule: Q01DX001 (ip), vehicle: carboxymethylcellulose (CMC) 97 % of control | [12] 100 % of control | [13] 104 % of control | [14] 97 % of control | [15] 97 % of control

CC1CCCNC1 (stereo unspecified)
inactive: [9] 97 % of control | [11] 93 % of control

CC1(CO)CCCC2(C)C3=CC(=O)CCC3CCC12 (stereo unspecified)
inactive: [4] 95 % of control | [16] 101 % of control | [5] 97 % of control

Fc1c(F)c(F)c(-c2nnc(-c3c(F)c(F)c(F)c(F)c3F)o2)c(F)c1F
inactive: [4] 96 % of control | [16] 96 % of control | [5] 95 % of control

CO[C@@]12[C@H](COC(N)=O)C3=C(C(=O)C(C)=C(N)C3=O)N1C[C@H]1[C@@H]2N1C(=O)[C@@H]1N2C(=O)[C@@H](NC(=O)Cc3ccccc3)[C@H]2SC1(C)C
inactive: [12] 109 % of control | endpoint: mean survival time, dose: 25.0 mg/kg/injection, schedule: Q01DX007 (ip), vehicle: carboxymethylcellulose (CMC) 120 % of control | endpoint: mean survival time, dose: 25.0 mg/kg/injection, schedule: Q01DX007 (oral), vehicle: carboxymethylcellulose (CMC) 100 % of control | [13] 113 % of control | endpoint: mean survival time, dose: 50.0 mg/kg/injection, schedule: Q01DX007 (ip), vehicle: carboxymethylcellulose (CMC) 116 % of control | endpoint: mean survival time, dose: 50.0 mg/kg/injection, schedule: Q01DX007 (oral), vehicle: carboxymethylcellulose (CMC) 96 % of control | [14] 111 % of control | [15] 111 % of control | endpoint: mean survival time, dose: 400.0 mg/kg/injection, schedule: Q01DX001 (ip), vehicle: carboxymethylcellulose (CMC) 111 % of control

O=c1[nH]cnc2c1ncn2C1OCC(O)C(O)C1O (stereo unspecified)
inactive: endpoint: mean survival time, dose: 100.0 mg/kg/injection, schedule: Q01DX001 (ip), vehicle: saline 102 % of control | endpoint: mean survival time, dose: 200.0 mg/kg/injection, schedule: Q01DX001 (ip), vehicle: saline 97 % of control | endpoint: mean survival time, dose: 400.0 mg/kg/injection, schedule: Q01DX001 (ip), vehicle: saline 103 % of control

CN(CCC#N)c1ccc(C(=C2C=CC(=Nc3ccccc3)c3ccccc32)c2ccc(N(C)CCC#N)cc2)cc1
inactive: endpoint: mean survival time, dose: 100.0 mg/kg/injection, schedule: Q04DX002 (ip), vehicle: saline with Tween-80 97 % of control | endpoint: mean survival time, dose: 200.0 mg/kg/injection, schedule: Q04DX002 (ip), vehicle: saline with Tween-80 101 % of control

CC(N)c1ccccc1 (stereo unspecified)
inactive: endpoint: mean survival time, dose: 37.5 mg/kg/injection, schedule: Q04DX003 (ip), vehicle: saline 98 % of control | endpoint: mean survival time, dose: 75.0 mg/kg/injection, schedule: Q01DX001 (ip), vehicle: saline 96 % of control | [7] 100 % of control | endpoint: mean survival time, dose: 150.0 mg/kg/injection, schedule: Q01DX001 (ip), vehicle: saline 100 % of control | [8] 100 % of control | endpoint: mean survival time, dose: 300.0 mg/kg/injection, schedule: Q01DX001 (ip), vehicle: saline 106 % of control

CC1CC(C)(C)NC1=O (stereo unspecified)
inactive: endpoint: mean survival time, dose: 6.25 mg/kg/injection, schedule: Q04DX003 (ip), vehicle: saline 103 % of control | endpoint: mean survival time, dose: 12.5 mg/kg/injection, schedule: Q04DX003 (ip), vehicle: saline 104 % of control | endpoint: mean survival time, dose: 25.0 mg/kg/injection, schedule: Q04DX003 (ip), vehicle: saline 95 % of control

CCCCCCCC(=O)Nc1ccc(-n2c(=O)cc(C)n2C)cc1
inactive: endpoint: mean survival time, dose: 100.0 mg/kg/injection, schedule: Q01DX009 (ip), vehicle: saline with Tween-80 90 % of control | [9] 90 % of control | endpoint: mean survival time, dose: 200.0 mg/kg/injection, schedule: Q01DX009 (ip), vehicle: saline with Tween-80 88 % of control | [10] 97 % of control | endpoint: mean survival time, dose: 400.0 mg/kg/injection, schedule: Q01DX009 (ip), vehicle: saline with Tween-80 86 % of control | [11] 95 % of control
